# Laboratory results from patent publication US20240173432A1, “Compositions and Methods for Treatment of Myotonic Dystrophy Type 1 with CRISPR/SluCas9” (Vertex Pharmaceuticals Incorporated, priority 2021, published 2024).
# System: CAG foci in primary DM1 patient myoblasts
# Test: Single-cut screening: CAG foci staining
# Assay type: cell-based, human
# Conditions: single sgRNA, DNA-PKi treated
# Summary of the method: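 Primary DM1 patient myoblasts were PFA-fixed and hybridized with […] (1 ng/μL, 15 min at 80° C) in 30% formamide/2×SSC, followed by anti-MBNL1 immunostaining and Hoechst counterstain. CAG RNA foci were quantified by high-content confocal imaging after single-cut SuCas9 sgRNA editing.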
row,Sequence,% of CAG foci positive nuclei (DNA-PKi) [%]
1,ATTTCTTTCTTTCGGCCAGGCT (guide RNA; chemistry not fully specified) [SluD03],2.14
2,CAAAACGTGGATTGGGGTTGTT (guide RNA; chemistry not fully specified) [SluD72],2.33
3,CAAACCGCCGAAGCGGGCGGAG (guide RNA; chemistry not fully specified) [SluD61],1.94
4,CAACGATAGGTGGGGGTGCGTG (guide RNA; chemistry not fully specified) [SluD23],4.37
5,CACCCCCGACCCTCGCGAATAA (guide RNA; chemistry not fully specified) [SluD90],1.27
6,CACTCAGTCTTCCAACGGGGCC (guide RNA; chemistry not fully specified) [SluU07],1.27
7,CACTTTGCGAACCAACGATAGG (guide RNA; chemistry not fully specified) [SluD27],1.4
8,CAGCGCAAGTGAGGAGGGGGGC (guide RNA; chemistry not fully specified) [SluD46],1.16
9,CAGGCTGAGGCCCTGACGTGGA (guide RNA; chemistry not fully specified) [SluD07],0.82

# Same assay, conditions: single sgRNA, vehicle
row,Sequence,% of CAG foci positive nuclei (Vehicle) [%]
1,ATTTCTTTCTTTCGGCCAGGCT (guide RNA; chemistry not fully specified) [SluD03],1.19
2,CAAAACGTGGATTGGGGTTGTT (guide RNA; chemistry not fully specified) [SluD72],2.62
3,CAAACCGCCGAAGCGGGCGGAG (guide RNA; chemistry not fully specified) [SluD61],1.27
4,CAACGATAGGTGGGGGTGCGTG (guide RNA; chemistry not fully specified) [SluD23],3.33
5,CACCCCCGACCCTCGCGAATAA (guide RNA; chemistry not fully specified) [SluD90],0.86
6,CACTCAGTCTTCCAACGGGGCC (guide RNA; chemistry not fully specified) [SluU07],2.36
7,CACTTTGCGAACCAACGATAGG (guide RNA; chemistry not fully specified) [SluD27],0.93
8,CAGCGCAAGTGAGGAGGGGGGC (guide RNA; chemistry not fully specified) [SluD46],1.69
9,CAGGCTGAGGCCCTGACGTGGA (guide RNA; chemistry not fully specified) [SluD07],2.37

# System: CUG foci in primary DM1 patient myoblasts
# Test: Single-cut screening: FISH staining of CUG RNA foci
# Assay type: cell-based, human
# Conditions: single sgRNA; primary DM1 patient myoblasts; DNA-PKi treated
# Summary of the method: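 CD56-purified primary DM1 patient myoblasts nucleofected with SluCas9:sgRNA RNP (30:90 pmol, single-cut), then DMSO or 3 μM DNA-PK inhibitor for 48 h. At 72 h post-nucleofection, cells fixed and stained for CUG foci with Cy3-PNA(CAG)5 probe (1 ng/μL, 80 °C), co-stained for MBNL1 and Hoechst, imaged by high-content confocal microscopy.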
row,Sequence,% of CUG foci free nuclei (DNA-PKi) [%]
1,ATTTCTTTCTTTCGGCCAGGCT (guide RNA; chemistry not fully specified) [SluD03],49.43
2,CAAAACGTGGATTGGGGTTGTT (guide RNA; chemistry not fully specified) [SluD72],28.82
3,CAAACCGCCGAAGCGGGCGGAG (guide RNA; chemistry not fully specified) [SluD61],26.76
4,CAACGATAGGTGGGGGTGCGTG (guide RNA; chemistry not fully specified) [SluD23],64.98
5,CACCCCCGACCCTCGCGAATAA (guide RNA; chemistry not fully specified) [SluD90],23.81
6,CACTCAGTCTTCCAACGGGGCC (guide RNA; chemistry not fully specified) [SluU07],51.08
7,CACTTTGCGAACCAACGATAGG (guide RNA; chemistry not fully specified) [SluD27],20.28
8,CAGCGCAAGTGAGGAGGGGGGC (guide RNA; chemistry not fully specified) [SluD46],34.71
9,CAGGCTGAGGCCCTGACGTGGA (guide RNA; chemistry not fully specified) [SluD07],29.79

# Same assay, conditions: single sgRNA; primary DM1 patient myoblasts; vehicle
row,Sequence,% of CUG foci free nuclei (Vehicle) [%]
1,ATTTCTTTCTTTCGGCCAGGCT (guide RNA; chemistry not fully specified) [SluD03],14.38
2,CAAAACGTGGATTGGGGTTGTT (guide RNA; chemistry not fully specified) [SluD72],16.2
3,CAAACCGCCGAAGCGGGCGGAG (guide RNA; chemistry not fully specified) [SluD61],17.04
4,CAACGATAGGTGGGGGTGCGTG (guide RNA; chemistry not fully specified) [SluD23],19.61
5,CACCCCCGACCCTCGCGAATAA (guide RNA; chemistry not fully specified) [SluD90],7.35
6,CACTCAGTCTTCCAACGGGGCC (guide RNA; chemistry not fully specified) [SluU07],26.22
7,CACTTTGCGAACCAACGATAGG (guide RNA; chemistry not fully specified) [SluD27],7.6
8,CAGCGCAAGTGAGGAGGGGGGC (guide RNA; chemistry not fully specified) [SluD46],8.24
9,CAGGCTGAGGCCCTGACGTGGA (guide RNA; chemistry not fully specified) [SluD07],12.52

# System: 3′ UTR of the human DMPK gene
# Test: Single-cut screening: indel editing efficiency by Sanger sequencing and ICE analysis in primary DM1 patient myoblasts
# Assay type: cell-based
# Conditions: single SluCas9 sgRNA RNP in primary DM1 patient myoblasts; Sanger sequencing and ICE analysis; vehicle-treated samples
# Procedure: Genomic DNA of DM1 myoblasts was isolated with the Kingfisher Flex purification system (Thermal Fisher) in 96-well format following the manufacturer's instruction. The DMPK 3′ UTR region was amplified using GoTaq Green Master Mix (Promega) and PCR primers flanking the 3′ UTR region. […] Amplification was conducted using the following cycling parameters: 1 cycle at 95° C. for 2 min; 40 cycles of 95° C. for 30 sec, 63° C. for 30 sec, and 72° C. for 90 sec; 1 cycle at 72° C. for 5 min. Only the wild type allele is amplified by the PCR reaction. The PCR products were analyzed on the TapeStation system with High Sensitivity D5000 ScreenTape (Agilent Technologies).
# PCR products were purified and sequenced by Sanger sequencing. […] Indel values were estimated using the ICE analysis algorithm (Synthego) with the chromatogram files obtained from Sanger sequencing.
# RNPs were assembled with recombinant SluCas9 protein and chemically modified sgRNAs at a ratio of 1:3 (protein:sgRNA). For SINGLE-cut screening, RNP complexes were assembled with 30 pmol of SluCas9 and 90 pmol of sgRNA in P5 Primary Cell Nucleofector Solution (Lonza). After incubation at room temperature for 20 minutes, 10 μL of RNP complex were mixed with two hundred thousand of primary myoblasts resuspended in 10 μL of P5 Nucleofector Solution. For DOUBLE-cut screening, RNP complexes were first assembled for individual sgRNAs with 20 pmol of SluCas9 protein and 60 pmol of sgRNAs in 5 μL of P5 Nucleofector Solution. After incubation at room temperature for 20 minutes, the two RNP complexes (one for upstream sgRNA and one for downstream sgRNA) were mixed at 1:1 ratio and then further mixed with two hundred thousand of primary myoblasts resuspended in 10 μL of P5 Nucleofector Solution.
# The Nucleofector 96-well Shuttle System (Lonza) was used to deliver the SluCa9/sgRNA RNPs into primary DM1 patient myoblasts using the nucleofection program CM138. […] 72 hrs post nucleofection, two wells of DMSO-treated myoblasts and two wells of DNA-PKi-treated myoblasts from each nucleofection were harvested for genomic DNA extraction using the Kingfisher Flex purification system (Thermal Fisher), whereas one well of DMSO-treated myoblasts and one well of DNA-PKi-treated myoblasts were stained for RNA foci by FISH staining.
# To assess the efficiency of individual SluCas9 sgRNAs for inducing indel editing and CTG repeat excision, single-cut screening was performed in which individual SluCas9 sgRNAs and recombinant SluCas9 protein were assembled into ribonucleoprotein (RNP) and delivered into primary DM1 patient myoblasts. […] Seventy-two (72) hrs post nucleofection, myoblasts were subjected to either genomic DNA isolation or RNA foci staining by fluorescence in situ hybridization (FISH).
# Sanger sequencing and ICE analysis were then performed to quantify the frequency of indels induced by individual sgRNAs. It is of note that only the vehicle-treated samples were used for ICE analysis.
# Editing efficiency was assessed by Sanger sequencing and ICE analysis. […] The * indicates the sgRNAs with R2<0.9 in the ICE analysis (in-house QC standard for reliable ICE analysis).
row,Sequence,Indel efficiency [%]
1,ATTTCTTTCTTTCGGCCAGGCT (guide RNA; chemistry not fully specified) [SluD03],2
2,CAAAACGTGGATTGGGGTTGTT (guide RNA; chemistry not fully specified) [SluD72],5
3,CAAACCGCCGAAGCGGGCGGAG (guide RNA; chemistry not fully specified) [SluD61],2
4,CAACGATAGGTGGGGGTGCGTG (guide RNA; chemistry not fully specified) [SluD23],48
5,CACCCCCGACCCTCGCGAATAA (guide RNA; chemistry not fully specified) [SluD90],2
6,CACTCAGTCTTCCAACGGGGCC (guide RNA; chemistry not fully specified) [SluU07],57
7,CACTTTGCGAACCAACGATAGG (guide RNA; chemistry not fully specified) [SluD27],8
8,CAGCGCAAGTGAGGAGGGGGGC (guide RNA; chemistry not fully specified) [SluD46],46
9,CAGGCTGAGGCCCTGACGTGGA (guide RNA; chemistry not fully specified) [SluD07],28
